Assay results from patent US11040981B2, “Pyrrolotriazine compounds and methods of inhibiting TAM kinases” (Syros Pharmaceuticals, Inc., priority 2017, dated 2021).
pIC50: −log10 of the molar value.

Legend:
MERTK = molecular target: T1, MERTK (Homo sapiens, UniProt Q12866); assay: TR-FRET kinase activity assay, MERTK; format: biochemical; conditions: for pIC50: TR-FRET activity assay, ATP at Km, 60 minutes, read-out: Mer IC50; for FLT3/Mer ratio (FLT3 IC50/Mer IC50): ratio of Mer to FLT3: FLT3 IC50/Mer IC50
T1 sequence (Q12866 21-999): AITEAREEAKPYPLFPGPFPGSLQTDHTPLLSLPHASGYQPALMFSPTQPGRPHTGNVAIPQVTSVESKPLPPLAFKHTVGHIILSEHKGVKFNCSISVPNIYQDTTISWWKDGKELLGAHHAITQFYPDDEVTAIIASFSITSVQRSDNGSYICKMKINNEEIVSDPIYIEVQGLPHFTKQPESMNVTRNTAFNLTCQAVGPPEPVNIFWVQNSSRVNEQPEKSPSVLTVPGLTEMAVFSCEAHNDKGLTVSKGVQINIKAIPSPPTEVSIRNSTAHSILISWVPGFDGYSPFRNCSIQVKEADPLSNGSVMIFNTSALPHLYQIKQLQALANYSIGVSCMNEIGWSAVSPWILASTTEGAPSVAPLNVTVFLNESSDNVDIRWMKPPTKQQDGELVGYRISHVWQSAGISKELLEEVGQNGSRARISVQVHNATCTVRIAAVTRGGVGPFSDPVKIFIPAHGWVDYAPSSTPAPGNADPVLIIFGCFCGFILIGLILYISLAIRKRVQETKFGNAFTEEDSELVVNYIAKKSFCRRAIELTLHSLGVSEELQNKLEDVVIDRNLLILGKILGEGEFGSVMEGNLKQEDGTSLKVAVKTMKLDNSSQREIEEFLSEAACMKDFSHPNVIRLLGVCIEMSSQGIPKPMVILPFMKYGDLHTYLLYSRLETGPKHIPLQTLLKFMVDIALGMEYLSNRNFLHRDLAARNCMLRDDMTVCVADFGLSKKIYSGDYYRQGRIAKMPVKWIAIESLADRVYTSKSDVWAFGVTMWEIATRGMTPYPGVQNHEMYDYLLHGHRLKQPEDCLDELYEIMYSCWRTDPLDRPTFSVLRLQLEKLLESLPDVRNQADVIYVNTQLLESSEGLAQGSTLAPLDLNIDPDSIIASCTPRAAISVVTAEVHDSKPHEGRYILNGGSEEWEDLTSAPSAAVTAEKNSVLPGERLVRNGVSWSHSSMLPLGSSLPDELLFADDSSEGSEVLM
Procedure, shortened: (§1)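 Enzyme + labelled peptide + cpd premixed; ATP at per-enzyme Km starts rxn. 60 min RT, HEPES pH 7.5/MgCl2/EGTA/Brij 35/DTT buffer. Stop 12.5 mM EDTA, Eu phospho-Ab 30 min dark, TR-FRET read → IC50.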

TYRO3 = molecular target: T2, TYRO3 (Homo sapiens, UniProt Q06418); assay: TR-FRET kinase activity assay, TYRO3; format: biochemical; conditions: ATP at Km, 60 minutes
T2 sequence (Q06418 41-890): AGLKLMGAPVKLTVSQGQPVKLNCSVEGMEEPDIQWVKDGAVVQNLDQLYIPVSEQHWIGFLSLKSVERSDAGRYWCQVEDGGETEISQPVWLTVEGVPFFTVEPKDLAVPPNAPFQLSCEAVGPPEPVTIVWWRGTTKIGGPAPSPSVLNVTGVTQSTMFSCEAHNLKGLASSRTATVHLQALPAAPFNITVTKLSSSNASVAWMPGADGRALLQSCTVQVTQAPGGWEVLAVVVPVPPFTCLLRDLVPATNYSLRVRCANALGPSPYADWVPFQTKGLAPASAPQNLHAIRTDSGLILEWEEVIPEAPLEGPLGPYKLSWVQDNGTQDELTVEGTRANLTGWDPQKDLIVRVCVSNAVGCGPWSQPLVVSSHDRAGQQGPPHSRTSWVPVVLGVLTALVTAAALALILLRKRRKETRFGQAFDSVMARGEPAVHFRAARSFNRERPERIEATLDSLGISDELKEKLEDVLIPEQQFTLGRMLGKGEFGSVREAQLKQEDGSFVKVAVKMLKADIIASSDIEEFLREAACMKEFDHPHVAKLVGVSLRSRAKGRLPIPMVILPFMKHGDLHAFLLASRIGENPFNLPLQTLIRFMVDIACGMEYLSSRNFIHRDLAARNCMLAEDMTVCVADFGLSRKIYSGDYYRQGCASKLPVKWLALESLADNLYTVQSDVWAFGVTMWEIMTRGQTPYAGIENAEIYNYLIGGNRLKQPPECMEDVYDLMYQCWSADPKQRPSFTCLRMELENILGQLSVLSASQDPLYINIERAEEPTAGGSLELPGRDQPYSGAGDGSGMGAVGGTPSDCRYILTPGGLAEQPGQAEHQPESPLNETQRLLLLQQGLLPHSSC
Procedure, shortened: as §1

| Structure (SMILES) | pIC50 (MERTK) | FLT3/Mer ratio (FLT3 IC50/Mer IC50) (MERTK) | pIC50 (TYRO3) |
| --- | --- | --- | --- |
| CN1CCN(Cc2ccc(-c3cc(C4CCC(O)CC4)n4nc(NC5CCC5(C)C)ncc34)cc2)CC1 (mixture of isomers) [Compound 121] | ≥ 7.00 | ++ (“++” represents a ratio of between 10 and 100) | ≥ 7.00 |
| COCC(C)Nc1ncc2c(C3CCN(C(C)=O)C3)cc(C3CCC(O)CC3)n2n1 (mixture of isomers) [Compound 383] | ≥ 7.00 | +++ (“+++” represents a ratio of >100) | ≥ 7.00 |
| COC[C@H](C)Nc1ncc2c(-c3ccc(CN4CCN(C)CC4)cc3)cc([C@H]3CC[C@H](O)CC3)n2n1 (single isomer, unassigned) [Compound 124] | ≥ 7.00 | ++ (“++” represents a ratio of between 10 and 100) | ≥ 7.00 |
| CC[C@H](C)Nc1ncc2c(-c3cncc(S(C)(=O)=O)c3)cc([C@H]3CC[C@H](O)CC3)n2n1 [Compound 119] | ≥ 7.00 | +++ (“+++” represents a ratio of >100) | ≥ 7.00 |
| CC[C@H](C)Nc1ncc2c(-c3cncc(S(C)(=O)=O)c3)cc([C@H]3CC[C@@H](O)CC3)n2n1 [Compound 120] | ≥ 7.00 | +++ (“+++” represents a ratio of >100) | ≥ 7.00 |
| CCCCC[C@H](C)Nc1ncc2c(C3=CCC(C(=O)O)CC3)cc([C@H]3CC[C@H](O)CC3)n2n1 (stereo partly drawn) [Compound 122, 4-(2-((S)-heptan-2-ylamino)-7-((trans)-4-hydroxycyclohexyl)pyrrolo[2,1-f][1,2,4]triazin-5-yl)cyclohex-3-enecarboxylic acid] | ≥ 7.00 | +++ (“+++” represents a ratio of >100) | ≥ 7.00 |
| CCC(C)Nc1ncc2c(C)cc(C3CCC(O)CC3)n2n1 (stereo not drawn) [Compound 123] | ≥ 7.00 | +++ (“+++” represents a ratio of >100) | 6.00 to 7.00 |
| CCCCC[C@H](C)Nc1ncc2c([C@H]3CC[C@@H](C(=O)O)CC3)cc([C@H]3CC[C@H](O)CC3)n2n1 [Compound 125, (cis)-4-(2-((S)-heptan-2-ylamino)-7-((trans)-4-hydroxycyclohexyl)pyrrolo[2,1-f][1,2,4]triazin-5-yl)cyclohexanecarboxylic acid] | ≥ 7.00 | ++ (“++” represents a ratio of between 10 and 100) | 6.00 to 7.00 |
| C[C@@H](CC(F)(F)F)Nc1ncc2c(-c3ccnc(N4CCOCC4)c3)cc([C@H]3CC[C@H](O)CC3)n2n1 [Compound 346] | ≥ 7.00 | +++ (“+++” represents a ratio of >100) | ≥ 7.00 |
| CNC(=O)c1ncc(-c2cc([C@H]3CC[C@H](O)CC3)n3nc(N[C@@H](C)CC(F)(F)F)ncc23)cn1 [Compound 347] | ≥ 7.00 | +++ (“+++” represents a ratio of >100) | ≥ 7.00 |
| COC[C@H](C)Nc1ncc2c(-c3cnn([C@H]4CCNC4=O)c3)cc([C@H]3CC[C@H](O)CC3)n2n1 [Compound 348] | ≥ 7.00 | +++ (“+++” represents a ratio of >100) | ≥ 7.00 |
| COC[C@H](C)Nc1ncc2c(-c3cc([C@H]4CC[C@H](O)CC4)n4nc(N[C@@H](C)COC)ncc34)cc([C@H]3CC[C@H](O)CC3)n2n1 [Compound 349] | ≥ 7.00 | +++ (“+++” represents a ratio of >100) | ≥ 7.00 |
| CC(C)Nc1ncc2c(-c3ccnc(N4CCOCC4)c3)cc([C@H]3CC[C@H](O)CC3)n2n1 [Compound 350] | ≥ 7.00 | +++ (“+++” represents a ratio of >100) | ≥ 7.00 |
| C[C@@H](CC(F)F)Nc1ncc2c(-c3cnn(C4COC4)c3)cc([C@H]3CC[C@H](O)CC3)n2n1 [Compound 351] | ≥ 7.00 | ++ (“++” represents a ratio of between 10 and 100) | ≥ 7.00 |
| CC(CC(F)F)Nc1ncc2c(-c3ccc(CN4CCN(C)CC4)cc3)cc(C3CCC(O)CC3)n2n1 (stereo not drawn) [Compound 352] | ≥ 7.00 | ++ (“++” represents a ratio of between 10 and 100) | ≥ 7.00 |
| CNC(=O)c1cc(-c2cc([C@H]3CC[C@H](O)CC3)n3nc(N[C@@H](C)CC(F)(F)F)ncc23)cc(C)n1 [Compound 353] | ≥ 7.00 | +++ (“+++” represents a ratio of >100) | ≥ 7.00 |
| CNc1cc(-c2cc([C@H]3CC[C@H](O)CC3)n3nc(N[C@@H](C)COC)ncc23)ccn1 [Compound 354] | ≥ 7.00 | +++ (“+++” represents a ratio of >100) | ≥ 7.00 |
| COC[C@H](C)Nc1ncc2c(-c3ccnc(N4CCOCC4)c3)cc([C@H]3CC[C@H](O)CC3)n2n1 [Compound 355] | ≥ 7.00 | + (“+” represents a ratio of >2.0 and <10) | ≥ 7.00 |
| OC1CCC(c2cc(-c3ccnc(N4CCOCC4)c3)c3cnc(NC4CCOC4)nn23)CC1 (stereo not drawn) [Compound 356] | ≥ 7.00 | ++ (“++” represents a ratio of between 10 and 100) | ≥ 7.00 |
| COC[C@H](C)Nc1ncc2c(-c3ccnc(N4CCS(=O)(=O)CC4)c3)cc([C@H]3CC[C@H](O)CC3)n2n1 [Compound 357] | ≥ 7.00 | +++ (“+++” represents a ratio of >100) | ≥ 7.00 |
| COC[C@H](C)Nc1ncc2c(-c3ccnc(OC4COC4)c3)cc([C@H]3CC[C@H](O)CC3)n2n1 [Compound 358] | ≥ 7.00 | +++ (“+++” represents a ratio of >100) | ≥ 7.00 |
| OC1CCC(c2cc(-c3ccnc(N4CCOCC4)c3)c3cnc(NCCC4CC4)nn23)CC1 (stereo not drawn) [Compound 359] | ≥ 7.00 | + (“+” represents a ratio of >2.0 and <10) | ≥ 7.00 |
| CNS(=O)(=O)c1ccc(-c2cc([C@H]3CC[C@H](O)CC3)n3nc(N[C@@H](C)CC(F)(F)F)ncc23)cn1 [Compound 360] | ≥ 7.00 | ++ (“++” represents a ratio of between 10 and 100) | ≥ 7.00 |
